Legend:
[1] = tested on: overweight and obese patients; settings: 4 clinical studies, more than 6000 overweight and obese patients; cited from earlier work
ob/ob mice = assay: Impact of CB2 antagonist on epididymal fat inflammatory gene expression in obese ob/ob mice (quantitative RT-PCR); type: in vivo, mouse; settings: 1 mg/kg daily intraperitoneal over 17 days, six week-old ob/ob mice
Experimental: Animals and Experimental Design: Experimental protocols were conducted in accordance with French government policies (Services véterinaires de la Santé et de la production animale, Ministère français de l'Agriculture). Animals were housed under 12 hours of light/12 hours of dark cycle, in a temperature-controlled environment. The impact of the CB2 antagonist AM630 was evaluated in 6 week-old male obese Lep^Ob/Lep^Ob male mice (ob/ob) and lean Lep^Ob+/Lep^Ob counterparts (ob+/ob). Mice received an 17 day-course of daily intraperitoneal injection of 1 mg/kg AM630 (n=10 ob/ob and n=5 ob+/ob) or vehicle (n=8 ob/ob and n=5 ob+/ob). AM630 (Tocris) was freshly dissolved in a vehicle solution containing 1 drop of Tween 80 in 0.1 ml dimethylsulfoxide (DMSO), sonicated, and further diluted 50 times in NaCl 9‰. Body weight and food intake were measured daily. Mice were sacrificed after overnight fasting. White epididymal adipose tissue was removed, weighed and either fixed in buffered formalin, or snap frozen in liquid nitrogen. All samples were stored at −80° C. until use.
RNA preparation and RT-PCR: Total RNA was extracted from mice epididymal fat using RNeasy® Lipid Tissue Mini kit (QIAGEN). Quantitative RT-PCR was carried out on a Light Cycler (Roche Diagnostics), as previously described.
The PCR amplified products were analyzed on a 2% agarose gel, and sequenced.

Q: For `Cc1c(C(=O)NN2CCCCC2)nn(-c2ccc(Cl)cc2Cl)c1-c1ccc(Cl)cc1` [rimonabant, Rimonabant], which “efficacy with regard to weight loss and reduction of the associated cardiometabolic risks” value [1] is on record?
A: consistent efficacy

Q: With `COc1ccc(C(=O)c2c(C)n(CCN3CCOCC3)c3cc(I)ccc23)cc1` [AM 630] as the molecule, how does the fat inflammatory response (ob/ob mice; epididymal fat, vs vehicle) read?
A: reduced

Q: And the “F4/80 mRNA expression in epididymal fat” value (ob/ob mice; vs vehicle (FIG. 16, p<0.05))?
A: lesser induction

Q: And the “MCP-1 mRNA expression in epididymal fat” value (ob/ob mice; vs vehicle (FIG. 16, p<0.05))?
A: lesser induction

Q: And the “TNF-alpha mRNA expression in epididymal fat” value (ob/ob mice; vs vehicle (FIG. 16, p<0.05))?
A: lesser induction

Reference: patent publication US8575125B2, “Selective inhibitors of CB2 receptor expression and/or activity for the treatment of obesity and obesity-related disorders” (Institut National de la Sante et de la Recherche Medicale …, priority 2007, dated 2013)
